From patent publication US20100017895A1, “Small animal model for hcv replication” (priority 2005, published 2010)

Experiments:
[1] = test system: HCV replicon in T7-11 cells; experiment: Subcutaneous T7-11 replicon cell model in gamma-irradiated SCID mice (bioluminescence, NS5B IFA, RT-PCR, cPARP, Ki67)
Method: Efficacy studies with T7-11 implanted mice were initiated when the bioluminescence signal was stable and approximately two logs above background. […] Control animals received human albumin.
BILN 2061 was administered at 30 mg/kg once daily starting day 21-post subcutaneous implantation of T7-11 cells.
Cell implantation. Female SCID mice were shaved at the site of cell implantation and gamma-irradiated with 3 Gy either one-day prior to or on the same day as cell implant. For subcutaneous implantation, five million cells in 0.2 ml of HBSS were implanted at the right flank.
Whole body in vivo imaging. Anesthetized mice were injected intraperitoneally with 150 mg/kg of luciferin (Xenogen Corporation, Alameda, Calif.). After 10-20 minutes, mice were imaged using a CCD camera in the Xenogen IVIS™ imaging system. The bioluminescence signal intensity was quantified using Living Image Software (Xenogen Corporation, Alameda, Calif.).
Statistical analysis. Differences in bioluminescence signal between control and treatment groups of mice were compared by the two-tailed Mann-Whitney test. Differences in signal among the control, treatment and rebound groups of mice and among combination groups were compared by the nonparametric Kruskal-Wallis test A P-value <0.05 was considered significant.

[2] = Pharmacokinetic (PK) data, subcutaneous route; type: in vivo
[3] = test system: HCV replicon in T7-11 cells; experiment: Liver model with T7-11 replicon cells in gamma-irradiated SCID mice; type: in vivo; conditions: 30 mg/kg SC once daily from day 25 post tumor cell implantation; within three days
Method: To evaluate the efficacy of IFN-α in liver, T7-11 cells were directly injected into one lobe of the liver in gamma irradiated SCID mice. […] To confirm that the luciferase signal was associated with the liver, the locations of tumors were determined by physical examination at the end of study
The antiviral effect of BILN 2061 on HCV replication was also examined. BILN 2061 was administered subcutaneously at 30 mg/kg once daily starting day 25-post tumor cell implantation.
Whole body in vivo imaging.

Row | Substance | effect on bioluminescence signal ([1]; 1 mg/kg, over 5 days of treatment) | duration of sustained plasma exposure [2] | fold decline in bioluminescence compared to the untreated control group [3] [fold] | signal after treatment was terminated ([1]; 30 mg/kg SC QD three days, several days after termination) | adverse effect on the replicon-containing cells ([1]; 30 mg/kg SC once daily for three days) | decrease of bioluminescence signal compared to the control group ([1]; 30 mg/kg SC once daily from day 21, within three days) | fold decrease of mean bioluminescence signal as compared to the control group ([1]; two days after treatment, SC daily from day 18, BILN 2061 30 mg/kg and/or IFN-α 15,000 IU) [fold]
1 | Interleukin 2 [IL-2] | no effect |  |  |  |  |  | 
2 | BILN 2061 |  | more than 24 hr | 10 | returned to the levels similar to the untreated control group | did not have any adverse effect on the replicon-containing cells | approximately two | 16
